{
  "source": "paper PMC10418701",
  "about": "“Pharmacological Screening of Kv7.1 and Kv7.1/KCNE1 Activators as Potential Antiarrhythmic Drugs in the Zebrafish Heart” (International Journal of Molecular Sciences, 2023)",
  "key": {"zebrafish Kv7.1 (KCNQ1) [1]": {"target": "T1, zebrafish Kv7.1 (KCNQ1) (Danio rerio, UniProt B0R0K2)", "T1 construct": "gene kcnq1.1", "T1 sequence (B0R0K2 1-655)": "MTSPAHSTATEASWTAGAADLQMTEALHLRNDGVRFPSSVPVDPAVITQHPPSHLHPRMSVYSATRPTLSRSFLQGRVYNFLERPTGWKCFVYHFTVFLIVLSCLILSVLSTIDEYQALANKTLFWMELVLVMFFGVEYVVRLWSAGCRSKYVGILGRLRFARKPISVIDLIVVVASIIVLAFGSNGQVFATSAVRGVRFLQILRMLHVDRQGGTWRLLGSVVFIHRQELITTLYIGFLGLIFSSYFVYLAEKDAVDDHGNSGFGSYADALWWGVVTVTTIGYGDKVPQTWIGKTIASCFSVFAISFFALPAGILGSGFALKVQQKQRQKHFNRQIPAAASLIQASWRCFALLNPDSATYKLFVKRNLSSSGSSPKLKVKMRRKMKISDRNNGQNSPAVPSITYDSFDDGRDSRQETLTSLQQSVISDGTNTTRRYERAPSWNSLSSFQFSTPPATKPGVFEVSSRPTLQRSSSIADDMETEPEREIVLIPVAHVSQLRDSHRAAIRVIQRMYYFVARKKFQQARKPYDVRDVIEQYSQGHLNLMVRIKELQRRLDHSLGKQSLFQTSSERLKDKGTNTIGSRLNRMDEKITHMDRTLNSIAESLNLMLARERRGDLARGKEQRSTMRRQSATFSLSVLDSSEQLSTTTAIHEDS", "experiment": "cell-based", "assay_type": "cell-based"}, "zebrafish Kv7.1 (KCNQ1) [2]": {"target": "T1, zebrafish Kv7.1 (KCNQ1)", "experiment": "two-electrode voltage clamp, zebrafish Kv7.[…] expressed in Xenopus laevis oocytes", "assay_type": "cell-based"}},
  "data": [
    {"smiles": "CC/C=C\\C/C=C\\C/C=C\\C/C=C\\C/C=C\\C/C=C\\CCC(=O)NCC(=O)O", "note": "[DHA-Gly]", "values": [
      {"measurement": "two-electrode voltage clamp, zebrafish Kv7.1 expressed in Xenopus laevis oocytes", "setting": "zebrafish Kv7.1 (KCNQ1) [1]", "result": "12.2 mV left shift of V0.5 at 20 µM"}
    ]},
    {"smiles": "COc1ccc(-c2csc(NC(=O)[C@H]3CCCCN3S(=O)(=O)c3ccc(C)cc3)n2)cc1", "note": "[ML-277]", "values": [
      {"measurement": "fold induction at 1 µM", "setting": "zebrafish Kv7.1 (KCNQ1) [1]; read-out: two-electrode voltage clamp, zebrafish Kv7.1 expressed in Xenopus laevis oocytes", "result": "> 8"}
    ]},
    {"smiles": "CCS(=O)(=O)N(C)[C@H]1c2cc(C#N)ccc2OC(C)(C)[C@@H]1O", "note": "(racemic) [chromanol 293B]", "values": [
      {"measurement": "inhibition at 10 µM", "setting": "zebrafish Kv7.1 (KCNQ1) [2]", "result": 76, "unit": "%"}
    ]}
  ]
}
